One data set deals with P19 cells. The settings on record: flow cytometry; all tested concentrations. (In general: Flow cytometry measures light scatter and fluorescence of single cells or particles in a stream.)
The subject of data set [1] is P19 cells in suspension aggregates. Briefly: Transfection of P19 suspension aggregates with GFP plasmid, read by qPCR and Western blot. The data set is classed as cell-based. The settings on record: comparison of PA system, peptide and Lipofectamine. An excerpt:
In the figure, “peptide amphiphile” is the DNA-binding PA with sequence […](N^ε-palmitoyl) and “peptide” is a peptide with sequence […].
In some embodiments, the invention described here improves on this system by incorporating one or more peptides which are bioactive and direct the complex to the nucleus. It is designed, in some embodiments, to form an alpha helix which binds to the major groove of the double helix of DNA. In addition, it is a self-assembling peptide amphiphile (PA) which forms high aspect ratio nanostructures. When complexed with DNA, these nanostructures are, on average, smaller than the nanostructures produced by LIPOFECAMINE as determined by dynamic light scattering. The present invention is not limited to a particular mechanism. Indeed, an understanding of the mechanism is not necessary to practice the present invention. Nonetheless, it is contemplated that the system works by complexing and condensing the DNA through specific binding to the major groove and electrostatic screening. This DNA-PA complex is similar to the LIPOFECTAMINE complex, however it includes a peptide region containing a nuclear localization signal which directs the cell to move this complex through the cytoplasm and into the nucleus where the genes encoded in the DNA are subsequently expressed. […]

Where a SMILES comes first, the peptide text is derived from it. The star is where a group is joined. Palmitoyl = CCCCCCCCCCCCCCCC(=O)*

Turning to `CCCCCCCCCCCCCCCC(=O)NCCCC[C@H](NC(=O)[C@H](C)NC(=O)[C@H](C)NC(=O)[C@H](C)NC(=O)[C@H](CC(C)C)NC(=O)[C@H](CC(C)C)NC(=O)[C@H](CC(C)C)NC(=O)[C@H](CCCCN)NC(=O)[C@H](CC(N)=O)NC(=O)[C@@H](NC(=O)[C@H](C)NC(=O)[C@H](CO)NC(=O)[C@H](CCC(N)=O)NC(=O)[C@H](Cc1ccc(O)cc1)NC(=O)[C@@H](NC(=O)CNC(=O)[C@H](CC(C)C)NC(=O)[C@H](CCCNC(=N)N)NC(=O)[C@H](CCCCN)NC(=O)[C@H](C)NC(=O)[C@@H](NC(=O)[C@H](CCCCN)NC(=O)[C@@H](N)CCCNC(=N)N)[C@@H](C)O)C(C)C)[C@@H](C)CC)C(=O)O` [DNA-binding PA] (H-RKTAKRLGVYQSAINKLLLAAAK(Palmitoyl)-OH), the “toxicity to P19 cells” value in the data set with P19 cells is on record as “nontoxic”.

In the case of RKTAKRLGVYQSAINK [peptide], the “transfection efficiency (in words)” value in data set [1] was “lower transfection efficiency”; in data set [1] (listed as peptide control), “poor results compared to both the lipofectamine system and the PA system”.

The values are drawn from patent publication US20090098652A1, “SELF ASSEMBLING PEPTIDE SYSTEMS AND METHODS” (Northwestern University, priority 2007, published 2009).
